Data published in patent publication US20230312587A1, “PTERIDINONE COMPOUNDS AND USES THEREOF” (Vertex Pharmaceutical Incorporated, priority 2018, published 2023).
Read-outs that look alike come from different tables or passages of the source.

What was measured:
[1] = test system: Hek293 empty vector; assay: In vitro cell viability (CellTiter-Glo), Hek293 empty vector; type: cell-based; conditions: read-out: Hek293 empty vector viability
Experimental: HEK293 (ATCC, catalog #CRL-1573) cells are plated in 10 cm dishes (Corning, product #430167) into 10 mL of complete DMEM cell culture media [DMEM (Life Technologies, product #11960-051) media supplemented with 10% FBS (Hyclone, catalog #SH30071.03), antimycotic/antibiotic (Life Technologies, product #15240-062), and Glutamax (Life Technologies, product #35050-061)] at 3×10^6 cells per dish. Cells are allowed to attach and grow overnight at 37° C. in humidified 5% CO2. Cells are co-transfected with pVSV-G, pCMV-Gag/Pol and pCLPCX_WFS1 using Fugene 6 (Promega, catalog #E2691) according to manufacturer's protocol. Separately, cells are co-transfected with pVSV-G, pCMV-Gag/Pol and pCLPCX to produce control retrovirus. Cell culture media containing retrovirus (viral supernatant) is collected at 48 and 72 hours following transfection, filtered through a 0.4 uM filter, and stored at −80° C.
HEK293 cells are plated in 6 well plates (Corning, product #3516) in 2 mL of complete DMEM cell culture media at 1×10^5 cells well and allowed to attach and grow overnight at 37° C. in humidified 5% CO2. The following day, the media is replaced with viral supernatant to which 10 ug/ml of Polybrene® (Santa Cruz Biotech, catalog #sc-134220) is added. Viral supernatant is replaced 24 hours later with complete DMEM media. Transduced cells are selected in complete DMEM cell culture media containing 1 microgram/mL of puromycin (Life Technologies, catalog #A1113803).
HEK293 cells containing empty pCLPCx vector (HEK293 empty), HEK293 cells stably over-expression WFS1 (HEK293 WFS1), HepG2, and HepG2 cells where WFS1 was depleted via CRISPR/Cas9 (HepG2 WFS1 KO) cells were plated into 96-well black plates (Corning, product #3904) in 100 microliters of complete DMEM cell culture media [DMEM (Life Technologies, product #11960-051) media supplemented with 10% FBS (Hyclone, catalog #SH30071.03), antimycotic/antibiotic (Life Technologies, product #15240-062), and Glutamax (Life Technologies, product #35050-061)] at 1,000 (HEK293) or 5,000 (HepG2) cells per well. Cells were allowed to attach and grow overnight, after which compounds are added at various concentrations. Cell viability was assessed 96 hrs after compound addition with CellTiter-Glo reagent (Promega, catalog #G7570) according to manufacturer's protocol and measurement on a Pherastar luminescence plate reader (BMG Labtech).
The IC50s for the viability of both the Hek293 empty vector and WFS1 over-expressing cells are summarized in Table 47: A<0.06 μM; 0.06 μM≤B<0.6 μM; 0.6 μM≤C<3.0 μM; D≥3.0 μM.

[2] = test system: HepG2 XBP1(u)-Luc cells; assay: HepG2 XBP1 reporter assay; type: cell-based; conditions: 6 h
Experimental: HepG2 hepatoma cells were transduced with a retrovirus encoding the cDNA for unspliced (u) XBP1, which contains a non-processed intron, fused to the cDNA for firefly luciferase. Upon induction of ER stress, the non-processed intron of XBP1(u) is spliced out by active IRE1alpha endonuclease. The resulting spliced (s) XBP1 is now in frame with luciferase which causes the production of active luciferase protein, resulting in bioluminescence
HepG2 XBP1(u)-Luc cells were plated […] Cultured cells with a stably transfected reporter construct were plated at approximately 30,000 cells per well into 96 well multi-well plates for twenty four hours. The testing compounds were then added to the wells in 3-fold serial dilutions using a twenty seven micromolar top concentration. A series of control wells for each cell type received only compound solvent. Six hours after the addition of compound, reporter activity for luciferase was assayed, by addition of the SteadyGlo luminescence reagent (Promega). The reporter luminescence activity was measured using Pherastar plate reader (BMG Labtech). Readings was normalized to DMSO only treated cells, and normalized activities were then used in the IC50 calculations. The HepG2 XBP1 reporter assay data are summarized in Table 47: A<0.6 μM; 0.6 μM≤B<2.0 μM; 2.0 μM≤C<10.0 μM; D≥10.0 μM.

Question: `Cc1nc(C(F)(F)F)ccc1Cn1cc(CNc2nc(C)c3c(n2)N(C)[C@@H](C)C(=O)N3)cn1` [Compound 188, (S)-4,7,8-trimethyl-2-(((1-((2-methyl-6-(trifluoromethyl)pyridin-3-yl)methyl)-1H-pyrazol-4-yl)methyl)amino)-7,8-dihydropteridin-6(5H)-one] was tested. Which IC50 ([1]; Homo sapiens, HEK293) did it give?
Answer: The IC50 was ≥ 3000 nM.

Question: And the IC50 ([2]; Homo sapiens)?
Answer: The IC50 was < 600 nM.

Question: `Cc1nc(NCc2cnn(Cc3ccc(C(F)(F)F)nc3)c2)nc2c1NC(=O)[C@H](C1CC1)N2C` [Compound 386, (7S)-7-Cyclopropyl-4,8-dimethyl-2-(((1-((6-(trifluoromethyl)pyridin-3-yl)methyl)-1H-pyrazol-4-yl)methyl)amino)-7,8-dihydropteridin-6(5H)-one] was tested. Which IC50 ([1]; Homo sapiens, HEK293) did it give?
Answer: Its IC50 is ≥ 3000 nM.

Question: What about the IC50 ([2]; Homo sapiens) of the same molecule?
Answer: Its IC50 is < 600 nM.

Question: `Cc1nc(NCc2cnn(Cc3ccc(C(F)(F)F)nc3C(C)C)c2)nc2c1NC(=O)[C@H](C)N2C` [Compound 388, (7S)-2-(((1-((2-isopropyl-6-(trifluoromethyl)pyridin-3-yl)methyl)-1H-pyrazol-4-yl)methyl)amino)-4,7,8-trimethyl-7,8-dihydropteridin-6(5H)-one] was tested. Which IC50 ([1]; Homo sapiens, HEK293) did it give?
Answer: The IC50 was ≥ 3000 nM.

Question: And the IC50 ([2]; Homo sapiens)?
Answer: Its IC50 is < 600 nM.

Question: Which IC50 ([1]; Homo sapiens, HEK293) does the source give for `Cc1nc(N[C@H]2C[C@H](Oc3ccc(F)cc3)C2)nc2c1N(C)C(=O)[C@H](C)N2C` [Compound 250, (7S)-2-((trans-3-(4-fluorophenoxy)cyclobutyl)amino)-4,5,7,8-tetramethyl-7,8-dihydropteridin-6(5H)-one] here?
Answer: Its IC50 is ≥ 3000 nM.

Question: How did the IC50 ([1]; Homo sapiens, HEK293) turn out when `Cc1nc(NCc2cnn(Cc3cc(F)c(F)c(F)c3)c2)nc2c1NC(=O)[C@H](C)N2C` [Compound 122, (7S)-4,7,8-trimethyl-2-(((1-(3,4,5-trifluorobenzyl)-1H-pyrazol-4-yl)methyl)amino)-7,8-dihydropteridin-6(5H)-one] was run?
Answer: Its IC50 is ≥ 3000 nM.

Question: What about the IC50 ([2]; Homo sapiens) of the same molecule?
Answer: Its IC50 is < 600 nM.

Question: With `COc1c(F)cc(Cn2cc(CNc3nc(C)c4c(n3)N(C)[C@@H](C)C(=O)N4)cn2)cc1F` [Compound 46, (7S)-2-(((1-(3,5-difluoro-4-methoxybenzyl)-1H-pyrazol-4-yl)methyl)amino)-4,7,8-trimethyl-7,8-dihydropteridin-6(5H)-one] as the molecule, how does the IC50 ([1]; Homo sapiens, HEK293) read?
Answer: Its IC50 is ≥ 3000 nM.

Question: For `Cc1cc(F)ncc1Cn1cc(CNc2nc(C)c3c(n2)N(C)[C@@H](C)C(=O)N3)cn1` [Compound 94, (7S)-2-(((1-((6-fluoro-4-methylpyridin-3-yl)methyl)-1H-pyrazol-4-yl)methyl)amino)-4,7,8-trimethyl-7,8-dihydropteridin-6(5H)-one], which IC50 ([1]; Homo sapiens, HEK293) is on record?
Answer: The IC50 was ≥ 3000 nM.

Question: And the IC50 ([2]; Homo sapiens)?
Answer: The IC50 was 600 to 2000 nM.

Question: `COc1cc(F)ccc1Cn1cc(CNc2nc(C)c3c(n2)N(C)[C@@H](C)C(=O)N3)cn1` [Compound 83, (7S)-2-(((1-(4-fluoro-2-methoxybenzyl)-1H-pyrazol-4-yl)methyl)amino)-4,7,8-trimethyl-7,8-dihydropteridin-6(5H)-one] was tested. Which IC50 ([1]; Homo sapiens, HEK293) did it give?
Answer: Its IC50 is ≥ 3000 nM.

Question: And the IC50 ([2]; Homo sapiens)?
Answer: The IC50 was 600 to 2000 nM.

Question: Which IC50 ([1]; Homo sapiens, HEK293) does the source give for `Cc1nc(NCc2cnn(Cc3cc(C(F)(F)F)nn3C)c2)nc2c1NC(=O)[C@H](C(C)C)N2C` [Compound 397, (7S)-7-Isopropyl-4,8-dimethyl-2-(((1-((1-methyl-3-(trifluoromethyl)-1H-pyrazol-5-yl)methyl)-1H-pyrazol-4-yl)methyl)amino)-7,8-dihydropteridin-6(5H)-one] here?
Answer: Its IC50 is ≥ 3000 nM.

Question: And the IC50 ([2]; Homo sapiens)?
Answer: Its IC50 is < 600 nM.

Question: How did the IC50 ([1]; Homo sapiens, HEK293) turn out when `CCN1c2nc(NCc3cnn(Cc4ccc(C(F)(F)F)nc4)c3)nc(C)c2NC(=O)[C@@H]1C` [Compound 395, (7S)-8-Ethyl-4,7-dimethyl-2-(((1-((6-(trifluoromethyl)pyridin-3-yl)methyl)-1H-pyrazol-4-yl)methyl)amino)-7,8-dihydropteridin-6(5H)-one] was run?
Answer: Its IC50 is ≥ 3000 nM.

Question: What about the IC50 ([2]; Homo sapiens) of the same molecule?
Answer: Its IC50 is 600 to 2000 nM.

Question: Which results are given for `Cc1nc(NCc2cnn(Cc3cccc(C(C)C)c3)c2)nc2c1NC(=O)[C@H](C)N2C` [Compound 80, (7S)-2-(((1-(3-isopropylbenzyl)-1H-pyrazol-4-yl)methyl)amino)-4,7,8-trimethyl-7,8-dihydropteridin-6(5H)-one]?
Answer: IC50 ([1]; Homo sapiens, HEK293): ≥ 3000 nM; IC50 ([2]; Homo sapiens): < 600 nM

Question: With `Cc1ccc(Cn2cc(CNc3nc(C)c4c(n3)N(C)[C@@H](C)C(=O)N4)cn2)cn1` [Compound 173, (7S)-4,7,8-trimethyl-2-(((1-((6-methylpyridin-3-yl)methyl)-1H-pyrazol-4-yl)methyl)amino)-7,8-dihydropteridin-6(5H)-one] as the molecule, how does the IC50 ([1]; Homo sapiens, HEK293) read?
Answer: The IC50 was ≥ 3000 nM.

Question: What about the IC50 ([2]; Homo sapiens) of the same molecule?
Answer: The IC50 was 2000 to 10000 nM.

Question: Which IC50 ([1]; Homo sapiens, HEK293) does the source give for `Cc1nc(NCc2cnn(Cc3ccnc(C(F)(F)F)c3)c2)nc2c1NC(=O)[C@H](C)N2C` [Compound 207, (7S)-4,7,8-trimethyl-2-(((1-((2-(trifluoromethyl)pyridin-4-yl)methyl)-1H-pyrazol-4-yl)methyl)amino)-7,8-dihydropteridin-6(5H)-one] here?
Answer: The IC50 was ≥ 3000 nM.

Question: And the IC50 ([2]; Homo sapiens)?
Answer: The IC50 was < 600 nM.

Question: What does the source list for `Cc1nc(NCc2cnn([C@H]3CCN(C4CCC(F)(F)CC4)C3)c2)nc2c1NC(=O)[C@H](C)N2C` [Compound 142, (7S)-2-(((1-((S)-1-(4,4-difluorocyclohexyl)pyrrolidin-3-yl)-1H-pyrazol-4-yl)methyl)amino)-4,7,8-trimethyl-7,8-dihydropteridin-6(5H)-one]?
Answer: IC50 ([1]; Homo sapiens, HEK293): ≥ 3000 nM; IC50 ([2]; Homo sapiens): 600 to 2000 nM

Question: For `Cc1nc(N[C@H]2C[C@H](Oc3cc(F)c(F)c(F)c3)C2)nc2c1NC(=O)[C@H](C)N2C` [Compound 246, (7S)-4,7,8-trimethyl-2-((trans-3-(3,4,5-trifluorophenoxy)cyclobutyl)amino)-7,8-dihydropteridin-6(5H)-one], which IC50 ([1]; Homo sapiens, HEK293) is on record?
Answer: The IC50 was ≥ 3000 nM.

Question: With `Cc1nc(NCc2cnn(Cc3cc(C(F)(F)F)nn3C)c2)nc2c1NC(=O)[C@H](C1CC1)N2C` [Compound 396, (7S)-7-Cyclopropyl-4,8-dimethyl-2-(((1-((1-methyl-3-(trifluoromethyl)-1H-pyrazol-5-yl)methyl)-1H-pyrazol-4-yl)methyl)amino)-7,8-dihydropteridin-6(5H)-one] as the molecule, how does the IC50 ([1]; Homo sapiens, HEK293) read?
Answer: The IC50 was ≥ 3000 nM.

Question: And the IC50 ([2]; Homo sapiens)?
Answer: Its IC50 is < 600 nM.

Question: Which IC50 ([1]; Hek293 empty vector) does the source give for `Cc1nc(N[C@H]2CC[C@H](Oc3ccc(C(F)(F)F)nc3)C2)nc2c1NC(=O)[C@H](C)N2C` (single isomer, unassigned) [Compound 377] here?
Answer: Its IC50 is ≥ 3000 nM.

Question: What about the IC50 [2] of the same molecule?
Answer: The IC50 was 600 to 2000 nM.

Question: For `Cc1nc(NCc2cnn(Cc3ccc(C(F)(F)F)nc3)c2)nc2c1NC(=O)[C@H](C)N2C(C)C` [Compound 385, (7S)-8-isopropyl-4,7-dimethyl-2-(((1-((6-(trifluoromethyl)pyridin-3-yl)methyl)-1H-pyrazol-4-yl)methyl)amino)-7,8-dihydropteridin-6(5H)-one], which IC50 ([1]; Homo sapiens, HEK293) is on record?
Answer: Its IC50 is ≥ 3000 nM.

Question: And the IC50 ([2]; Homo sapiens)?
Answer: The IC50 was < 600 nM.

Question: Which results are given for `CC[C@H]1C(=O)Nc2c(C)nc(NCc3cnn(Cc4ccc(C(F)(F)F)nc4)c3)nc2N1C` [Compound 186, (7S)-7-ethyl-4,8-dimethyl-2-(((1-((6-(trifluoromethyl)pyridin-3-yl)methyl)-1H-pyrazol-4-yl)methyl)amino)-7,8-dihydropteridin-6(5H)-one]?
Answer: IC50 ([1]; Homo sapiens, HEK293): ≥ 3000 nM; IC50 ([2]; Homo sapiens): < 600 nM

Question: Which IC50 ([1]; Homo sapiens, HEK293) does the source give for `Cc1nc(N[C@H]2CC[C@H](Oc3ccc(C(F)(F)F)nc3)C2)nc2c1NC(=O)[C@H](C)N2C` (single isomer, unassigned) [Compound 376] here?
Answer: Its IC50 is ≥ 3000 nM.

Question: And the IC50 ([2]; Homo sapiens)?
Answer: The IC50 was 600 to 2000 nM.

Question: For `Cc1nc(N[C@H]2C[C@H](Sc3cc(F)c(F)c(F)c3)C2)nc2c1NC(=O)[C@H](C)N2C` [Compound 329, (7S)-4,7,8-trimethyl-2-((trans-3-((3,4,5-trifluorophenyl)thio)-cyclobutyl)amino)-7,8-dihydropteridin-6(5H)-one], which IC50 ([1]; Homo sapiens, HEK293) is on record?
Answer: The IC50 was ≥ 3000 nM.

Question: And the IC50 ([2]; Homo sapiens)?
Answer: Its IC50 is < 600 nM.

Question: With `Cc1nc(NCc2cnn(Cc3ccc(F)nc3)c2)nc2c1NC(=O)[C@H](C)N2C` [Compound 77] as the molecule, how does the IC50 ([1]; Homo sapiens, HEK293) read?
Answer: The IC50 was ≥ 3000 nM.
